Data set [1] is described as follows: Stability in human serum determined by HPLC. The data set is classed as in vitro ADME. The settings on record: 37° C. The procedure:
The retro-inverse peptides were dissolved in PBS to obtain a final concentration of 1 mM. From this stock, an aliquot of 50 μL was taken and diluted to 450 μL of human serum (Sigma Aldrich from human male AB plasma, USA origin, sterile-filtered) at 37° C. under agitation, to obtain an initial concentration of […] and incubated for 48 h. Aliquots of 50 μL were extracted at 0, 5, 10 min and 1, 3, 6, 24 and 48 h and added to 200 μL of methanol at 4° C. for 30 min to precipitate serum proteins. The samples were then centrifuged at 13,000 g in Hermle Cooling Centrifuge Z 326 K 311.00 V01 at 4° C. for 30 min. The supernatants (approximately 200 μL) were obtained, placed in vials, and then analyzed by HPLC. All analyzes were performed on the Perkin Elmer auto sampler flexo HPLC, using a reverse phase 4.6×100 mm column with a particle size of […] (Waters XBridge Peptide BEH C18 Column). Mobile phase A was 100% acetonitrile and phase B was TFA 0.0004% in Milli-Q water. The initial composition of eluent was 5% A and 95% B for 1 min and then a linear gradient to reach 100% A in 19 min and then return to the initial composition in 4 min, with a total run time of 25 min. The eluent flow was 0.9 mL/min and the temperature of the column was adjusted to 26° C. L measurement was performed at a UV signal of 220 nm wavelength. Where 50 μL was injected per sample. Peptides were identified based on their retention time in the respective chromatogram obtained in the Chromera-HPLC flexar program.

Data set [2] concerns cardiac myocytes isolated from neonatal Sprague-Dawley rat ventricles. The data set is described as follows: Norepinephrine-induced cardiomyocyte hypertrophy, western blot of β-MHC and ANP. The settings on record: 1, 10 or 100 μM peptide, 10 μM norepinephrine. The data set is classed as cell-based. The procedure:
Cardiac myocytes were isolated from neonatal Sprague-Dawley rat ventricles. Cardiac myocytes were plated at 70% final density in gelatin-coated wells (12-well plates) or in 60-mm Petri dishes and maintained at 37° C. in a humidified atmosphere of 5% CO2/95% air for 24 h in Dulbecco's Modified Eagle's medium [(DMEM)/M199](4:1) containing 10% fetal bovine serum and 5% fetal calf serum. Serum was withdrawn 24 h before preincubation with 1, 10 or 100 μM retro-inverse angiotensin-(1-9) for 1 h; then, 10 μM norepinephrine (Sigma, St Louis, Missouri, USA) were added and the cultures were incubated for 24 h. Then cells were washed with PBS at 4° C. and then cells were lysed with 50 μL of RIPA lysis buffer (Tris-HCl 10 mM pH 7.4, EDTA 5 mM, NaCl 50 mM, deoxycholic acid 1%, Triton X-100 1% v/v) supplemented with phosphatase and protease inhibitors (Roche). After centrifugation at 12,000 r.p.m. for 15 min at 4° C., the supernatat was recovered; total protein content was determined by using Bradford (BioRad protein assay, BioRad, Hercules, CA, USA). Proteins were denatured in SDS-PAGE 4× buffer and resolved in 12% PAGE-SDS. After electrotransference, beta-myosin heavy chain (β-MHC) and atrial natriuretic peptide (ANP) were used as hypertrophic markers. β-tubulin was used as loading control. As expected, norepinephrine 10 μM for […], a cardiomyocyte hypertrophy inducer, triggered β-MHC and ANP increase (FIG. 3).
A general note: Immunoblotting shows a protein as a band on a membrane.

For data set [3], the system named is adult rat cardiac fibroblasts. As to the kind of experiment: Cardiac fibroblast proliferation, cell count in Neubauer chamber. It is filed as cell-based. As to conditions: DMEM F-12 5% FBS, 24 h, trypan blue cell count. Here is the method: Male Sprague-Dawley rats (250-300 g) were anesthetized with ketamine-xylazine (66 and 1.6 mg/kg i.p., respectively). Adult rat cardiac fibroblasts were isolated by retrograde aortic perfusion. Briefly, hearts were digested with collagenase type B solution for 1 h, and cells were centrifuged at 500 rpm for 2 min. The supernatant, mainly adult rat cardiac fibroblasts, was centrifuged at 1000 rpm for 10 min, resuspended in Dulbecco's Modified Eagle Medium: Nutrient Mixture F-12 (DMEM F-12) plus 15% fetal bovine serum (FBS) and then seeded in nontreated culture dishes during 3 h. Cells were washed with phosphate buffered saline to eliminate debris and nonadherent cells. Adult rat cardiac fibroblasts were used at passage one and seeded on 60 mm cell culture dishes in DMEM F-12 plus 10% FBS and incubated at […] for 3 h. To synchronize cells, they were washed and incubated in DMEM F-12 (without serum, 0% FBS) for 24 h before experimentation. Cell proliferation was determined in cardiac fibroblasts incubated for 24 h with and without retro-inverse angiotensin-(1-9) in DMEM F-12 5% FBS. Cells were trypsinized and cell number was determined using trypan blue method in a Neubauer chamber.

Where a SMILES comes first, the peptide text is derived from it. Where no end group is shown, it is not given here. [ ]: non-standard residue; d: D form.

“DRVYIHPFH [angiotensin-(1-9), Asp-Arg-Val-Tyr-Ile-His-Pro-Phe-His]”: the “degradation after incubation with human serum” value in data set [1] (3 h incubation) is recorded as “completely degraded”. As for `CC[C@@H](C)[C@@H](NC(=O)[C@@H](Cc1c[nH]cn1)NC(=O)[C@H]1CCCN1C(=O)[C@@H](Cc1ccccc1)NC(=O)[C@H](N)Cc1c[nH]cn1)C(=O)N[C@H](Cc1ccc(O)cc1)C(=O)N[C@@H](C(=O)N[C@H](CCCNC(=N)N)C(=O)N[C@H](CC(=O)O)C(N)=O)C(C)C` [retro-inverse angiotensin-(1-9) amide, ^DH^DF^DP^DH^DI^DY^DV^DR^DD-CONH2] (H-[dH][dF][dP][dH][dI][dY][dV][dR][dD]-NH2), the “degradation after incubation with human serum” value in data set [1] (24 h incubation) is “no significant degradation”. Also, the “increase of ANP induced by norepinephrine” value in data set [2] is recorded as “blocked”.

Consider `O=c1[nH]c(=O)n([C@H]2C[C@H](O)[C@@H](CO)O2)cc1Br` [bromodeoxyuridine, reference compound], for which the fibroblast proliferation result in data set [3] is recorded as “comparable to bromodeoxyuridine”.
